How the values were obtained:
Format in all cases: functional
Rattus norvegicus [1] = species: Rattus norvegicus; assay: Ability to stimulate the production of cyclic AMP by rat retinal adenylate cyclase at a concentration of 10 uM
Rattus norvegicus [2] = species: Rattus norvegicus; assay: Ability to stimulate the production of cyclic AMP by rat retinal adenylate cyclase at a concentration of 1 uM
Rattus norvegicus [3] = species: Rattus norvegicus; assay: Ability to stimulate the production of cyclic AMP by rat retinal adenylate cyclase at a concentration of 0.1 uM

## CC(CN)c1ccc(O)c(O)c1 (single isomer, unassigned)
Rattus norvegicus [1]
  Stimulation: 41%
Rattus norvegicus [2]
  Stimulation: 6%
Rattus norvegicus [3]
  Stimulation: 1.5%

## NCCc1ccc(O)c(O)c1 [DOPAMINE]
Rattus norvegicus [1]
  Stimulation: 205.4%
Rattus norvegicus [2]
  Stimulation: 106.4%
Rattus norvegicus [3]
  Stimulation: 31.4%

## C[C@H](CN)c1ccc(O)c(O)c1
Rattus norvegicus [1]
  Stimulation: 39.1%
Rattus norvegicus [2]
  Stimulation: 11.7%
Rattus norvegicus [3]
  Stimulation: 1.6%

## NCC(c1ccccc1)c1ccc(O)c(O)c1 (stereo not given)
Rattus norvegicus [1]
  Stimulation: 97.1%
Rattus norvegicus [2]
  Stimulation: 16.3%
Rattus norvegicus [3]
  Stimulation: 4.9%

## CC(CN)c1ccc(O)c(O)c1 (racemic)
Rattus norvegicus [1]
  Stimulation: 10.5%
Rattus norvegicus [2]
  Stimulation: -3.5%
Rattus norvegicus [3]
  Stimulation: 5.9%

Reference: ChEMBL document CHEMBL1123627, “Effect of beta-alkyl substitution on D-1 dopamine agonist activity: absolute configuration of beta-methyldopamine” (1987)
